Entries after “also recorded” stand apart in the source; their conditions may differ.
What was measured:
[1] = solubility and stability in alkaline medium (physicochemical properties); settings: for stability in basic substances / alkaline water: basic substances such as pyridine, monoethanolamine, and alkaline water; for Solubility: Also soluble in basic substances: soluble but readily decomposed; for Solubility: Insoluble in: solvents listed as Insoluble; for Solubility: Soluble in: solvents listed as Soluble
rabbit aorta = test: inhibition of contraction using extirpated blood vessel preparations (vasodilative activity); settings: contraction by 20 mM KCl, added 30 minutes before; for inhibition at 10 µg/mL: final concentration 10.0 μg/ml
Experimental: The vosodilative activity of KS-504a, KS-504b and KS-504d is explained below, referring to Experimental Example 1 on inhibition of contraction using extirpated blood vessel preparations.
White bastard rabbits (male, 2-3 kg) were incised along the abdominal median line. The aorta was cut out with a length of about 2-2.5 cm from the venter, and spiral strips with a width of 3-4 mm were prepared therefrom. The strips were ligated with silk yarn at both ends, and the lower end was connected to a stationary rod, whereas the upper end was connected to a tension transducer (TB-612T, a product of Nippon Koden Co., Ltd.). The strips were suspended under an initial tension of 1.5 g. The strips were soaked in a Krebs-Henseleit solution at 32° C. whose composition in g/l was NaCl: 6.92, KCl: 0.35, MgSO4.7H2 O: 0.29, CaCl2.2H2 O: 0.37, KH2 PO4 : 0.16, NaHCO3 :2.1 and glucose: 1.0 in a Magnus tube, and a gas (95% O2 and 5% CO2) was introduced therein. After being stabilized for 1 to 2 hours, the preparations were used for the experiment. Potassium chloride was added to the Magnus tube to a final concentration of 20 mM. The resulting contraction reaction was recorded on a polygraph (AM-6000, a product of Nippon Koden Co., Ltd.) in equal scales through the tension transducer. KS-504a, KS-504b and KS-504d were each dissolved in dimethyl sulfoxide to a concentration of mg/ml, and the solutions were properly diluted with a Krebs-Henseleit solution and added to the Magnus tube 30 minutes before the application of the contracting
*The rate of inhibition of contraction was calculated according to the
Rate of inhibition of contraction (%)

[2] = system: rat peritoneal exudate cells; test: inhibition of histamine secretion from rat peritoneal exudate cells; type: cell-based; settings: 10 min, phosphatidyl-L-serine and concanavalin A, 37° C, read-out: Rate of suppression of histamine secretion
Experimental: Influence on histamine secretion from rat peritoneal exudate cells
Rats with body weights of 150-180 g were killed under dry ether anesthesia by exsanguination, and mast cell medium prepared according to the method of Sullivan, et al. J. Immunol. 114, 1473 (1975)](hereinafter abbreviated as MCM, composition: 150mM NaCl, 3.7 mM KCl, 3 mM Na2 HPO4, 3.5 mM KH2 PO4, 1 mM CaCl2, 5.6 mM glucose, 0.1% bovine serum albumin, 10 U/ml heparin) was injected intraperitoneally into the animals at 6 ml/animal. The abdominal parts were massaged for two minutes, and then cut open to sample exuded solution in the abdominal cavities. The exuded solution collected from 6 rats was centrifuged a 100×g for 5 minutes at 4° C, and the precipitate was mixed with an appropriate amount of water-cooled MCM, and washed three times to prepare a cell suspension (peritoneal exudate cells, hereinafter abbreviated as PEC) containing mast cells at a final concentration of about 3×10^4 cells/ml. Identification of mast cells was carried out by staining intracellular granules with 0.05% Toluidine Blue. Then, 1 ml of the thus obtained PEC was preincubated at 37° C for 10 minutes, and then admixed with 0.1 ml of test solutions at various concentrations and incubated for 10 minutes. The incubated mixtures were further admixed with 0.1 ml each of 100 μg/ml phosphatidyl-L-serine and 1000 μg/ml concanavalin A, followed by incubation for 15 minutes. The reaction was discontinued by addition of 3 ml of ice-cooled physiological saline solution, and the mixture was centrifuged at 1100×g for 10 minutes at 4° C. to obtain a supernatant and a residue. Histamine contents of the supernatant and the residue were measured by fluorometry according to the method of Komatsu [Allergy 27, 67 (1978)].
The histamine secretion rate was defined by a percentage of histamine content in the supernatant to total histamine content in the cells. The rate of suppression of histamine secretion by the test solution was calculated according to the following equation.
Rate of suppression of secretion (%) [formula]

[3] = minimal lethal dose in mice; type: in vivo; settings: p.o.
[4] = Oryctolagus cuniculus, read-out: Rate of inhibition of contraction

Compound | stability in basic substances / alkaline water [1] | Solubility: Also soluble in basic substances [1] | Solubility: Insoluble in [1] | Solubility: Soluble in [1] | inhibition at 10 µg/mL (rabbit aorta; [4]) | Rate of inhibition of contraction (rabbit aorta; final concentration 1.0 μg/ml) | Rate of inhibition of contraction (rabbit aorta; final concentration 3.0 μg/ml) | inhibition at 0.03 µg/mL ([2]; test solution 0.03 μg/ml) | inhibition at 0.1 µg/mL ([2]; test solution 0.1 μg/ml) | inhibition at 0.3 µg/mL ([2]; test solution 0.3 μg/ml) | inhibition at 30 µg/mL (rabbit aorta; Oryctolagus cuniculus, final concentration 30.0 μg/ml, read-out: Rate of inhibition of contraction) | minimal lethal dose [3] | inhibition at 0.1 µg/mL (rabbit aorta; Oryctolagus cuniculus, final concentration 0.1 μg/ml, read-out: Rate of inhibition of contraction) | inhibition at 1 µg/mL (rabbit aorta; Oryctolagus cuniculus, final concentration 1.0 μg/ml, read-out: Rate of inhibition of contraction) | inhibition at 3 µg/mL (rabbit aorta; Oryctolagus cuniculus, final concentration 3.0 μg/ml, read-out: Rate of inhibition of contraction)
OC1C(Cl)(Cl)C(=C(Cl)Cl)C2(OC2Cl)C1(Cl)Cl (stereo not drawn) [KS-504b] | readily decomposed | pyridine, monoethanolamine, etc. and alkaline | water, acidic water | methanol, chloroform, acetone, ethyl; also recorded: acetate, acetonotrile; also recorded: dimethylsulfoxide | 100% | 76% | 80% |  |  |  |  |  |  |  | 
O=CC1=C(C(Cl)(Cl)Cl)C(Cl)(Cl)C(O)C1(Cl)Cl (stereo not drawn) [KS-504e] | readily decomposed | pyridine, monoethanolamine, etc. and alkaline | water, acidic water | methanol, chloroform, acetone, ethyl; also recorded: acetate, acetonitrile; also recorded: dimethylsulfoxide |  |  |  | 15% | 62% | 100% |  |  |  |  | 
OC1C(Cl)(Cl)C(=C(Cl)Cl)C(O)(C(Cl)Cl)C1(Cl)Cl (stereo not drawn) [KS-504d] | readily decomposed | pyridine, monoethanolamine, etc. and alkaline |  | acetone, ethyl acetate, acetonitrile; also recorded: benzene, methanol, chloroform; also recorded: hexane, water, acidic water | 6.9% |  |  |  |  |  | 91% |  |  |  | 
OC1C(Cl)(Cl)C(=C(Cl)Cl)C2(OC2Cl)C1(Cl)Cl (stereo not drawn) [KS-504a] | readily decomposed | pyridine, monoethanolamine, etc. and alkaline | water, acidic water | methanol, n-butanol, chloroform; also recorded: acetone, ethyl acetate; also recorded: dimethylformamide, dimethylsulfoxide; also recorded: benzene, acetic acid, hexane |  |  |  |  |  |  |  | 300 mg/kg | 37% | 59% | 82%
